Measurements taken from patent US10131669B2, “Pyrazolopyrimidine compounds” (Pfizer Inc., priority 2014, dated 2018).
Structures can show the parent of a compound that is named as a salt. Where two headings read alike, the source gives them in different places.

How the values were obtained:
Assay type in all cases: biochemical
human PDE4D3 = target: T1, human PDE4D3 (Homo sapiens, UniProt Q08499); assay: PDE4D3 Scintillation Proximity Assay (SPA), inhibition of enzyme activity
T1 construct: His6 (C); made in house; host or cells: insect cells (baculovirus, pFastBac)
T1 sequence (Q08499 186-808): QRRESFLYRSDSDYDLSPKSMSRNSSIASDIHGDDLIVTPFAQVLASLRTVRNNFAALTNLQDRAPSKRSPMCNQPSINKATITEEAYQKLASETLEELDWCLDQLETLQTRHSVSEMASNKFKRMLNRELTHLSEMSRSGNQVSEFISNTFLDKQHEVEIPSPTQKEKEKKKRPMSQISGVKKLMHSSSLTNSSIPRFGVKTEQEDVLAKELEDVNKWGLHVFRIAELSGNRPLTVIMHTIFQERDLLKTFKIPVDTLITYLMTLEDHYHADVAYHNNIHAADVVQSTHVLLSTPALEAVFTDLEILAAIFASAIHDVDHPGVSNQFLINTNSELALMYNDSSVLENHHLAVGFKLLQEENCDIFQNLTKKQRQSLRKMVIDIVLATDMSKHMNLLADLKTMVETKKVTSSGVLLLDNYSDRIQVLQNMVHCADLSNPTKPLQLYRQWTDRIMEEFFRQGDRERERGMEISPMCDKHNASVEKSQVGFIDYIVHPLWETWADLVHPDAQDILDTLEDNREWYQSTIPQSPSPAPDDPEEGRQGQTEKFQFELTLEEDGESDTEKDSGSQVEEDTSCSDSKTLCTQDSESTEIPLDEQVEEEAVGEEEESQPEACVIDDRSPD
Experimental: The recombinant Bacmid was isolated and used to transfect insect cells to generate a viral stock. To generate cell paste for purification, insect cells were infected and cells were harvested 72 hours after infection. Insect cell paste was lysed and after centrifugation, the supernatant was chromatographed on Ni-NTA agarose (Qiagen) as described in Seeger, T. F. et al., Brain Research 985 (2003) 113-126. Ni-NTA agarose eluting fractions containing PDE4 were pooled, diluted with Q Buffer A (50 mM Tris HCl pH 8, 4% glycerol, 100 mM NaCl, 1 mM TCEP, Protease inhibitors EDTA-free (Roche)) to reduce NaCl to ˜200 mM, and loaded on a Q Sepharose (GE Healthcare) column. After washing with Q buffer A to baseline, PDE4D was eluted with a gradient from 10% to 60% of Buffer B (50 mM Tris HCl pH 8, 1 M NaCl, 4% glycerol, 1 mM TCEP). PDE4D fractions were analyzed by SDS-PAGE Coomassie blue staining, pooled based on purity, frozen and stored at −80° C.
(§1) The PDE4A3, PDE4B1, PDE4C1 and PDE4D3 assays use the Scintillation Proximity Assay (SPA) technology to measure the inhibition of human recombinant […], PDE4C1, and PDE4D3 enzyme activity by compounds in vitro. The PDE4A1, PDE4B3, PDE4C1, and PDE4D3 assays are run in parallel using identical parameters, except for the concentration of enzyme (80 pM PDE4A3, 40 pM PDE4B3, 40 pM PDE4C1 and 10 pM PDE4D). The assays are performed in a 384-well format with 50 uL assay buffer (50 mM TRIS pH7.5; 1.3 mM MgCl2; 0.01% Brij) containing enough PDE4A3, PDE4B1, PDE4C1, and PDE4D to convert ˜20% of substrate (1 μM cAMP consisting of 20 nM 3H-cAMP+[…] cold cAMP) and a range of inhibitors. Reactions are incubated for 30 min at 25° C. The addition of 20 uL of 8 mg/ml yitrium silicate SPA beads (Perkin Elmer) stops the reaction. The plates are sealed (TopSeal, Perkin Elmer) and the beads are allowed to settle for 8 hrs, after which they are read on the Trilux Microbeta overnight.

Human PDE4B1 = target: T2, Human PDE4B1 (Homo sapiens, UniProt Q07343, S133E/S654A/S659A/S661A); assay: PDE4B1 Scintillation Proximity Assay (SPA), inhibition of enzyme activity
T2 construct: His6 (N); thrombin cleavage site (N); made in house; host or cells: insect cells (baculovirus, pFastBac)
T2 sequence (Q07343 122-736 S133E/S654A/S659A/S661A): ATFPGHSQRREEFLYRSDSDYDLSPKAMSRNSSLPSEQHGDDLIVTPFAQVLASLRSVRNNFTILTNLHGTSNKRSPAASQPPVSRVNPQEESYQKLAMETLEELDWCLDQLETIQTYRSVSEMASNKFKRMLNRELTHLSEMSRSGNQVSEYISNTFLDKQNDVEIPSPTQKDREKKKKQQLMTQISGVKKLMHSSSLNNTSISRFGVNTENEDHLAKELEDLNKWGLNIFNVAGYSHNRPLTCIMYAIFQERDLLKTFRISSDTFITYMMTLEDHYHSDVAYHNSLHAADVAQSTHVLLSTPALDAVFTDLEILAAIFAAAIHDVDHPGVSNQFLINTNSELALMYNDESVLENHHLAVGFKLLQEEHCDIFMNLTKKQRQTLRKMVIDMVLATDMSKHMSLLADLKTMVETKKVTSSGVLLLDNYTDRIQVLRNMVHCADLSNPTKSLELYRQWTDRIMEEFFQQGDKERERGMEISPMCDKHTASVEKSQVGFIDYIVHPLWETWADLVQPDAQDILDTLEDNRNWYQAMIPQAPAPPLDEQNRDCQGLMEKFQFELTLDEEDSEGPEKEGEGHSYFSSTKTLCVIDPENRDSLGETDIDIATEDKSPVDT
Experimental: The recombinant Bacmid was isolated and used to transfect insect cells to generate a viral stock. To generate cell paste for purification, insect cells were infected with the virus stock and cells were harvested 72 hours after infection as described in Seeger, T. F. et al., Brain Research 985 (2003) 113-126. Insect cell paste was lysed and after centrifugation, the supernatant was chromatographed on Ni-NTA agarose (Qiagen) as described in Seeger, T. F. et al., Brain Research 985 (2003) 113-126. Ni-NTA agarose eluting fractions containing PDE4 were pooled, diluted with Q buffer A (20 mM Tris HCl pH 8, 5% glycerol, 1 mM TCEP) to reduce NaCl to ˜100 mM and loaded on a Source 15Q (GE Healthcare) column. After washing with Q buffer A/10% buffer B to baseline, PDE4D was eluted with a gradient from 10% to 60% of Buffer B (20 mM Tris HCl pH 8, 1 M NaCl, 5% glycerol, 1 mM TCEP). PDE4D fractions were analyzed by SDS-PAGE Coomassie blue staining, pooled based on purity, frozen and stored at −80° C.
as §1

Human PDE4C1 = target: T3, Human PDE4C1 (Homo sapiens, UniProt Q08493); assay: PDE4C1 Scintillation Proximity Assay (SPA), inhibition of enzyme activity; conditions: geometric mean of 2-7 determinations unless otherwise indicated (b: ≥8 determinations; c: single determination), 1 μM cAMP, 30 min at 25° C., read-out: Human PDE4C FL
T3 construct: His6 (N); FLAG (C); made in house; host or cells: insect cells (baculovirus, pFastBac)
T3 sequence (Q08493 2-712): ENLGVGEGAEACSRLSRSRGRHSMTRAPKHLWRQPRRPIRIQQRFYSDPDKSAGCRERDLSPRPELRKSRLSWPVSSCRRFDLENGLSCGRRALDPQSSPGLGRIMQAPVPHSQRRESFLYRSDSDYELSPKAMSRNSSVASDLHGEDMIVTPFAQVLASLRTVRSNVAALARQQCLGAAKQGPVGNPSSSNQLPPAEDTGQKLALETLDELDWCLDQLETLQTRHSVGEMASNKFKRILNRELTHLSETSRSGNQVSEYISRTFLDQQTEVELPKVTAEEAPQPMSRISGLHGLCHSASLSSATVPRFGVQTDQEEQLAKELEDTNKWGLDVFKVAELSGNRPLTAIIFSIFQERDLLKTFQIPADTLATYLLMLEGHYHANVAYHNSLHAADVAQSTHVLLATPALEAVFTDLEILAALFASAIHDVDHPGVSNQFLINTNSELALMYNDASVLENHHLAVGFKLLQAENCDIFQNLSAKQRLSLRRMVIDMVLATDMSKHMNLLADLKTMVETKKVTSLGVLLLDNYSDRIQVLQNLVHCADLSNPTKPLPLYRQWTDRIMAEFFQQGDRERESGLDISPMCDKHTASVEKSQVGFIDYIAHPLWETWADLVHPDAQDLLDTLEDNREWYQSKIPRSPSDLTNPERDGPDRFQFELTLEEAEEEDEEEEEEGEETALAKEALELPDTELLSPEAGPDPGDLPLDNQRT
Experimental: (§2) The recombinant Bacmid was isolated and used to transfect insect cells to generate a viral stock. To generate cell paste for purification, insect cells were infected with the virus stock and cells were harvested 72 hours after infection. Insect cell paste was lysed and after centrifugation, the supernatant was batch bound to Ni-NTA agarose (GE Healthcare) and eluted with 250 mM imidazole. This eluate was diluted with FLAG buffer (50 mM Tris HCL pH 7.5, 100 mM NaCl, 5% Glycerol, 1 mM TCEP with protease inhibitors) and batch bound to ant-FLAG M2 agarose (Sigma) overnight at 4° C. The agarose was packed into a column, washed with buffer and eluted with buffer containing elute using 250 ug/ml Flag-peptide. Fractions were analyzed using SDS-PAGE Coomassie blue staining and pooled based on purity. Pooled fractions were chromatographed on a S200 120 ml column (GE Healthcare) in 50 mM Tris HCL pH 7.5, 150 mM NaCl, 10% Glycerol, 2 mM TCEP with protease inhibitors. PDE4C1 fractions were analyzed by SDS-PAGE Coomassie blue staining, pooled based on purity, dialyzed against 50 mM Tris HCL pH 7.5, 100 mM NaCl, 20% Glycerol, 2 mM TCEP, frozen and stored at −80° C.
as §1

Human PDE4A3 = target: T4, Human PDE4A3 (Homo sapiens, UniProt P27815); assay: PDE4A3 Scintillation Proximity Assay (SPA), inhibition of enzyme activity; conditions: geometric mean of 2-7 determinations unless otherwise indicated (b: ≥8 determinations; c: single determination), 1 μM cAMP, 30 min at 25° C., read-out: Human PDE4A FL
T4 construct: His6 (N); FLAG (C); made in house; host or cells: insect cells (baculovirus, pFastBac)
T4 sequence (P27815 2-825 isoform P27815-6): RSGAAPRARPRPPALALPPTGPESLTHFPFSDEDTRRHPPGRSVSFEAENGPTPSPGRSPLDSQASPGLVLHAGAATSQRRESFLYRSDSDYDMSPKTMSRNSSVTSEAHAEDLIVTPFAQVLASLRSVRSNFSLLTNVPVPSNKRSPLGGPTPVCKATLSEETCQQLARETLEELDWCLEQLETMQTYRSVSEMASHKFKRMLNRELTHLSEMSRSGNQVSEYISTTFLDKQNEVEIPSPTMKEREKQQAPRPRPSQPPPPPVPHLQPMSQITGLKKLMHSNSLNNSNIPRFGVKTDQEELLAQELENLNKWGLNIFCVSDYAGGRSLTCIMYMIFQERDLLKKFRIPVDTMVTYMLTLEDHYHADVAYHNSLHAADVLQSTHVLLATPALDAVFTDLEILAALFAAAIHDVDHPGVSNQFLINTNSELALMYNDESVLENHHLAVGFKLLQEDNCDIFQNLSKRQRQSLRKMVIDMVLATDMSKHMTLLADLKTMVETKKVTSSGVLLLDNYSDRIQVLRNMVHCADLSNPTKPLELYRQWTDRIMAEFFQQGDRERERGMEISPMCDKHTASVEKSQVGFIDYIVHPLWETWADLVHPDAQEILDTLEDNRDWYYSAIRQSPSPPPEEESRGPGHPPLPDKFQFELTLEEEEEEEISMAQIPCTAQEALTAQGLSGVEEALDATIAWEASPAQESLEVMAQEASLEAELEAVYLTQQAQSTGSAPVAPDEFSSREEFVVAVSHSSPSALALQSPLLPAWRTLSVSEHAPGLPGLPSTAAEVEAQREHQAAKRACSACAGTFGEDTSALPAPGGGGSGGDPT
Source text: as §2, with “Human PDE4A3 coding sequence (amino acids 2 to 825 from the sequence with accession number NP_001104779) was cloned into the baculovirus expression vector pFastBac (Invitrogen) engineered to include an N-terminal His6 affinity tag and a c-terminal FLAG affinity tag to aid in purification. The recombinant” for “The recombinant”, “protease inhibitors. PDE4A3 fractions were” for “protease inhibitors. PDE4C1 fractions were”
as §1

[1] = geometric mean of 2-7 determinations unless otherwise indicated (b: ≥8 determinations; c: single determination), 1 μM cAMP, 30 min at 25° C., read-out: Human PDE4D FL, IC50
[2] = geometric mean of 2-7 determinations unless otherwise indicated (b: ≥8 determinations; c: single determination), 1 μM cAMP, 30 min at 25° C., read-out: Human PDE4B FL, IC50

Row | Structure (SMILES) | IC50 (human PDE4D3; [1]) [nM] | IC50 (Human PDE4B1; [2]) [nM] | IC50 (Human PDE4C1) [nM] | IC50 (Human PDE4A3) [nM] | IC50 (human PDE4D3) [nM] | IC50 (Human PDE4B1) [nM]
1 | Cc1cc(Cl)ccc1-c1c(C(=O)NC2CC2)nn2cccnc12 [Example 6, 3-(4-Chloro-2-methylphenyl)-N-cyclopropylpyrazolo[1,5-a]pyrimidine-2-carboxamide] | > 10400 | 55.2 | 66 | 28.7 |  | 
2 | O=C(NC1CC1)c1nn2cccnc2c1-c1ccc(Cl)cc1 [Example 10, 3-(4-chlorophenyl)-N-cyclopropylpyrazolo[1,5-a]pyrimidine-2-carboxamide] | 5840 | 96.9 | 42.9 | 25.3 |  | 
3 | O=C(c1nn2cc(F)cnc2c1-c1ccc(Cl)cc1)N1CCC1 [Example 9, Azetidin-1-yl[3-(4-chlorophenyl)-6-fluoropyrazolo[1,5-a]pyrimidin-2-yl]methanone, Formate Salt] |  |  | 55.3 | 16.7 | 3710 | 34.4
4 | O=C(NC1(C(F)(F)F)CC1)c1nn2cccnc2c1-c1ccc(Cl)cc1 [Example 36, 3-(4-chlorophenyl)-N-[1-(trifluoromethyl)cyclopropyl]pyrazolo[1,5-a]pyrimidine-2-carboxamide, hydrochloride salt] | > 25200 | 452 | 452 | 67.2 |  | 
5 | O=C(NC1CC1)c1nn2cccnc2c1-c1ccc(Cl)c(F)c1F [Example 71, 3-(4-chloro-2,3-difluorophenyl)-N-cyclopropylpyrazolo[1,5-a]pyrimidine-2-carboxamide] | 797 | 25.5 | 11.1 | 10.2 |  | 
6 | O=C(NC1CC1)c1nn2cc(F)cnc2c1-c1ccc(Cl)c(F)c1F [Example 58, 3-(4-chloro-2,3-difluorophenyl)-N-cyclopropyl-6-fluoropyrazolo[1,5-a]pyrimidine-2-carboxamide] | 430 | 20.1 | 9 | 4.04 |  | 
7 | O=C(NC1CC1)c1nn2cccnc2c1-c1ccc(Cl)c(F)c1 [Example 5, 3-(4-Chloro-3-fluorophenyl)-N-cyclopropylpyrazolo[1,5-a]pyrimidine-2-carboxamide] | 662 | 5.87 | 18 | 3.29 |  | 
8 | CN(C(=O)c1nn2cccnc2c1-c1ccc(Cl)cc1)C1CC1 [Example 35, 3-(4-chlorophenyl)-N-cyclopropyl-N-methylpyrazolo[1,5-a]pyrimidine-2-carboxamide, hydrochloride salt] | > 30000 | 1860 | 710 | 1110 |  | 
9 | Cc1cc(C#N)c(F)cc1-c1c(C(=O)NC2CC2)nn2cccnc12 [Example 23, 3-(4-cyano-5-fluoro-2-methylphenyl)-N-cyclopropylpyrazolo[1,5-a]pyrimidine-2-carboxamide] | 442 | 25.9 | 39.4 | 8.42 |  | 

Continued, in another order:

Row | IC50 (human PDE4D3; [1]) [nM] | IC50 (Human PDE4B1; [2]) [nM] | IC50 (Human PDE4C1) [nM] | IC50 (Human PDE4A3) [nM] | Structure (SMILES) | IC50 (human PDE4D3) [nM] | IC50 (Human PDE4B1) [nM]
10 | 6630 | 51.7 | 52.7 | 109 | N#Cc1ccc(-c2c(C(=O)N3CCC3)nn3cccnc23)cc1F [Example 15, 4-[2-(azetidin-1-ylcarbonyl)pyrazolo[1,5-a]pyrimidin-3-yl]-2-fluorobenzonitrile] |  | 
11 | 6880 | 150 | 97.3 | 39.9 | CCNC(=O)c1nn2cccnc2c1-c1ccc(Cl)cc1C [Example 18, 3-(4-chloro-2-methylphenyl)-N-ethylpyrazolo[1,5-a]pyrimidine-2-carboxamide] |  | 
12 | 1080 | 16.1 | 23.4 | 8.77 | O=C(NC1CC1)c1nn2cc(F)cnc2c1-c1ccc(Cl)cc1 [Example 7, 3-(4-Chlorophenyl)-N-cyclopropyl-6-fluoropyrazolo[1,5-a]pyrimidine-2-carboxamide] |  | 
13 | 140 | 3.7 | 19.9 | 14.4 | O=C(N[C@@H]1C[C@@H]1F)c1nn2cccnc2c1-c1ccc(Cl)c(F)c1 [Example 28, 3-(4-chloro-3-fluorophenyl)-N-[(1R,2S)-2-fluorocyclopropyl]pyrazolo[1,5-a]pyrimidine-2-carboxamide] |  | 
14 | 1060 | 30.5 | 28.5 | 8.75 | Cc1cc(Cl)ccc1-c1c(C(=O)NC2CC2)nn2cc(F)cnc12 [Example 55, 3-(4-chloro-2-methylphenyl)-N-cyclopropyl-6-fluoropyrazolo[1,5-a]pyrimidine-2-carboxamide] |  | 
15 | 1290 | 63.5 | 29.6 | 7.28 | O=C(c1nn2cccnc2c1-c1cc(F)c(Cl)cc1F)N1CCC1 [Example 49, azetidin-1-yl[3-(4-chloro-2,5-difluorophenyl)pyrazolo[1,5-a]pyrimidin-2-yl]methanone] |  | 
16 | > 14400 | 221 | 178 | 146 | O=C(NC1CC1)c1nn2cccnc2c1-c1ccc2ncoc2c1 [Example 43, 3-(1,3-benzoxazol-6-yl)-N-cyclopropylpyrazolo[1,5-a]pyrimidine-2-carboxamide] |  | 
